In patent US20160115225A1, “Methods of Reducing Methylglyoxal (MGO) Modification of Recombinant Proteins in Cell Culture” (AbbVie Inc., priority 2014, published 2016):

Legend:
[1] = test system: adalimumab producing cell line 2; test: WCX-10 quantification of acidic species of adalimumab, bioreactor culture, cell line 2; type: cell-based; conditions: Example 4; 0.15 g/l 2DDG; control 29.8%
Experimental: Two adalimumab producing cell lines were employed in the studies covered here. Upon thaw, cells were cultured in their respective growth media in a combination of vented non-baffled shake flasks (Corning) on a shaker platform at 110 RPM (cell line 1) and 140 RPM (cell line 2) and 10 L or 20 L wave bags (GE). Cultures were propagated in a 35° C., 5% CO2 incubator for cell line 1 and 36° C., 5% CO2 incubator for cell line 2 to obtain the required number of cells to be able to initiate production stage cultures.
For the bioreactor (3 L Applikon) experiments (Examples 1, 2 and 3), 3 L, bioreactors (1.5 L working volume) were initiated at 35° C. (cell line 1) and 36° C. (cell line 2), 30% DO, 200 rpm, pH of 7.1. […]
This method is employed towards the quantification of the acidic species and other charge variants present in cell culture harvest samples. […]
Quantitation is based on the relative area percent of detected peaks. […]
(§1) The objective of this experiment was to further evaluate the control of MGO synthesis/MGO protein modification through reduced glucose consumption in a different cell line, Cell line 2. […] As described in Example 3, extracellular MGO quantification was performed for day 7, 8 and 9 for the samples below and percentage of acidic species were quantified using WCX-10 analysis post protein A of cell culture harvests.

[2] = test system: adalimumab producing cell line 2; test: Glucose consumption of the culture, cell line 2; type: cell-based; conditions: Example 4
Experimental: For the bioreactor (3 L Applikon) experiments (Examples 1, 2 and 3), 3 L, bioreactors (1.5 L working volume) were initiated at 35° C. (cell line 1) and 36° C. (cell line 2), 30% DO, 200 rpm, pH of 7.1. In some of the conditions, pH was ramped down to 6.8 in three days and kept at pH 6.8 thereafter. The inclusion of pH ramp for a particular condition is indicated by the final pH in the experimental design. If the final pH is 7.1, then it indicates no pH ramp was performed, whereas if the final pH is 6.8, a pH ramp was performed on day 3 from pH 7.1 to pH 6.8. In some of the conditions, a temperature shift was performed. When temperature shift was performed, the temperature was lowered to 33° C. Again, the conditions where such a temperature shift was performed can be identified from the final temperature in the experimental design. Cultures were run in extended batch mode with the addition of a desired amount of 40% glucose stock solution was fed based on glucose measurements.
as §1, with “harvests. […]” for “harvests.”

Compound: O=CC[C@@H](O)[C@H](O)[C@H](O)CO [Test 2DDG, 2-Deoxy-D-Glucose]
- percentage of acidic species [1]: 27.2%
- glucose consumption rate ([2]; 0.05 g/l 2DDG, compared to control): not significantly lower
- glucose consumption ([2]; 0.15 g/l 2DDG): reduction
